# Counter-ions that a name gives are not always drawn.
# Assays:
# [1] = test system: methicillin-resistant S. aureus (MRSA); experiment: Antibacterial assay; format: cell-based, Staphylococcus aureus; conditions: for inhibition at 200 µM: read-out: Inhibition rate against Methicillin-resistant Staphylococcus aureus
# Description: (§1) In this study, the tested bacteria strains, Escherichia coli ATCC25922, Staphylococcus aureus subsp. aureus ATCC29213, Salmonella enterica subsp. enterica ATCC14028, Pseudomonas aeruginosa ATCC27853, methicillin-resistant S. aureus (MRSA) were purchased from China General Microbiological Culture Collection Center (CGMCC). All the strains were cultured in Mueller-Hinton broth (Oxoid, Thermo Fisher Scientific) at 37°C with shaking at 200 rpm overnight. Each culture was diluted 40-fold in fresh MHB broth and incubated at 37°C with shaking (200 rpm) for another 2–3 h. The mid-log phase cultures were diluted to a concentration of 5 × 10^5 CFU/mL by McFarland Standards, which was used as seeding solution for following antibacterial assays. Each well of the compound-containing 96-well plates was seeded with 100 μL of aforementioned seeding solution, giving a final compound concentration 200 μM. Plates were covered and incubated at 37°C for 24 h. The inhibitory rates were calculated by [(1-OD625sample)/OD625negative control] × 100%. Penicillin G sodium and ceftazidime were used as positive controls (inhibitory rates >99%) ([Zhao Z.-Z. et al., 2018]). Compounds were first tested for their potential against five bacterial strains at a single concentration of 200 μM. If the inhibitory rate above 50%, different concentrations of the compounds were further evaluated for the antibacterial ability.
# [2] = test system: Staphylococcus aureus subsp. aureus ATCC29213; experiment: Antibacterial assay; format: cell-based; conditions: 200 μM, 24 h
# Description: as §1
# [3] = test system: Escherichia coli ATCC25922; experiment: Antibacterial assay; format: cell-based
# Description: as §1
# [4] = test system: Pseudomonas aeruginosa ATCC27853; experiment: Antibacterial assay; format: cell-based; conditions: for inhibition at 200 µM: Pseudomonas aeruginosa, ATCC27853, read-out: Inhibition rate against Pseudomonas aeruginosa
# Description: as §1
# [5] = test system: Salmonella enterica subsp. enterica ATCC14028; experiment: Antibacterial assay; format: cell-based; conditions: for inhibition at 200 µM: Salmonella enterica, ATCC14028, 24 h, read-out: Inhibition rate against Salmonella enterica subsp. enterica
# Description: as §1
# [6] = target: β-amyloid precursor protein-cleaving enzyme 1 (β-secretase, BACE1) (Homo sapiens, UniProt P56817); experiment: BACE1 FRET assay; format: biochemical; conditions: 3 h at room temperature, read-out: IC50 BACE1 inhibition
# Description: β-amyloid precursor protein-cleaving enzyme 1 (β-secretase, BACE1) assays were performed according to the literature ([Qi et al., 2018]; [Yatsu et al., 2019]). First, 10 μL of the test sample, 10 μL of the 722 nM BACE1 substrate (Rh-[…]-Quencher in 50 mM ammonium bicarbonate), and 10 μL of the BACE1 enzyme (1 U/mL) were mixed in black 384-well plates and incubated for 3 h at room temperature. The fluorescence intensity was measured at 540 nm excitation and 590 nm emission using a microplate reader (Tecan Spark 10M, TECAN, Männedorf, Switzerland) at the time points of 1 h and 3 h. The BACE1 inhibition rate was calculated by the following equation: BACE1 inhibition rate (%) = {1–[(S–S0)–(B–B0)/(C–C0)–(B–B0)]} × 100, where C is the fluorescence of a DMSO control (enzyme, substrate, and assay buffer with DMSO) after 3 h of incubation, C0 is the fluorescence of the DMSO control at 1 h after incubation, B is the fluorescence of a non-enzyme control (substrate and assay buffer with DMSO) after 3 h of incubation, B0 is the fluorescence of the non-enzyme control at 1 h after incubation, S is the fluorescence of the tested samples (enzyme, sample solution, and substrate) after 3 h of incubation, and S0 is the fluorescence of the tested samples at 1 h after incubation. The IC50 values were calculated by GraphPad Prism software (v5.02, CA, USA).
# in vitro = format: cell-based; conditions: human
# Description: The human lung cancer cell line A549 used in this study was purchased from Conservation Genetics CAS Kunming Cell Bank. The cells were cultured in high-glucose DMEM with 10% fetal bovine serum, 100 mg/mL streptomycin, 100 U/mL penicillin, and kept in an incubator at 37°C under an atmosphere of 5% CO2. The cell viability was assessed by 3-(4,5-dimethylthiazol-2-yl)-2,5-diphenyltetrazolium bromide (MTT) method. […] In brief, 100 μL of adherent cells was seeded to each well of a 96-well cell culture plate. The plate was kept for 12 h for adherence. […] However, suspended cells were seeded with the same density of 1 × 10^5 cells/mL every 100 μL of culture medium before adding the test compounds. Then the plate was incubated for another 48 h. After 48 h of incubation, 100 μg of MTT was added to each well, another 4 h of incubation was continued at 37°C. After removal of 100-μL culture medium, the cells were lysed with 20% SDS-50% DMF (100 μL). The remained lysates were subjected to measure the optical density value at 595 nm with a 96-well microtiter plate reader (Tecan Spark 10M, Switzerland). […] All the experiments were in triplicates. The IC50 value was calculated by a published method ([Chen et al., 2018]).
# [7] = Staphylococcus aureus, MRSA, 200 μM, 24 h
# Chain of β-amyloid precursor protein-cleaving enzyme 1 (β-secretase, BACE1) (P56817 22-501 limits assumed): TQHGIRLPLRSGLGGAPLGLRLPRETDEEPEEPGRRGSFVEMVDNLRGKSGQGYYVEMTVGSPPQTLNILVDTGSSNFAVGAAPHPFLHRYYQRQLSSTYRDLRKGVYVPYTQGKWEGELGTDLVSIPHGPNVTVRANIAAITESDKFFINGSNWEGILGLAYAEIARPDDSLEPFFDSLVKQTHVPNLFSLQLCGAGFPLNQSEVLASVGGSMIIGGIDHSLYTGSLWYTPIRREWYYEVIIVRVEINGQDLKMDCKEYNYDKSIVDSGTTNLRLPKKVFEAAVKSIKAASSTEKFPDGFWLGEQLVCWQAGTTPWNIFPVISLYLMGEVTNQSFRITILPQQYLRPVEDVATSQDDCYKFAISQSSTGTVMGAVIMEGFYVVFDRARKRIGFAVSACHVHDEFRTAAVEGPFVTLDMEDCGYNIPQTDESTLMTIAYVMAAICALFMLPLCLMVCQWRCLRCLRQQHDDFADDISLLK
compound,measurement,setting,value
"1,4,5-trihydroxy-7-methoxy-2-methyl-anthraquinone [Compound 14]",Inhibition rate against Methicillin-resistant Staphylococcus aureus,"[1]; 200 μM, 24 h",52.0%
same,Inhibition rate against Staphylococcus aureus subsp. aureus,[2],– (This symbol “–” represent no activity)
same,Inhibition rate against Escherichia coli,"[3]; 200 μM, 24 h",– (This symbol “–” represent no activity)
same,Inhibition rate against Pseudomonas aeruginosa,"[4]; 200 μM, 24 h",38.2%
same,Inhibition rate against Salmonella enterica subsp. enterica,"[5]; 200 μM, 24 h",– (This symbol “–” represent no activity)
"CCCCCC1Cc2c(cc(CC=C(C)C)c(O)c2C(=O)O)O1 (racemic) [Compound 1, (±)-Chevalieric acid]",IC50,[6],101 µM
"CC(C)(O/N=C(\C(=O)N[C@@H]1C(=O)N2C(C(=O)[O-])=C(C[n+]3ccccc3)CS[C@H]12)c1csc(N)n1)C(=O)O [Ceftazidime, ceftazidime, reference compound]",inhibition at 200 µM,"[3]; Escherichia coli, ATCC25922, 24 h, read-out: Inhibition rate against Escherichia coli",99.8%
same,inhibition at 200 µM,[5],99.3%
"COc1cc(O)cc2c1C(=O)c1c(O)cc(C)cc1[C@@H]2[C@@H](C)CC(C)=O [Compound 2, (10S,12S)-Chevalierone]",inhibition at 200 µM,"[4]; 200 μM, 24 h",38.2%
"COc1cc(O)cc2c1C(=O)c1c(O)cc(C)cc1[C@@H]2[C@H](C)CC(C)=O [Compound 3, (10S,12R)-Chevalierone]",antibacterial activity against MRSA (in words),[1],significant antibacterial activities
same,inhibition at 200 µM,[1]; [7],74.1%
same,antibacterial activity against P. aeruginosa (in words),[4],significant antibacterial activities
same,inhibition at 200 µM,"[4]; 200 μM, 24 h",81.9%
"COc1cc(O)cc2c1C(=O)c1c(O)cc(C)cc1[C@H]2[C@H](C)CC(C)=O [Compound 4, (10R,12R)-Chevalierone]",antibacterial activity against MRSA (in words),[1],significant antibacterial activities
same,inhibition at 200 µM,[1]; [7],85%
same,antibacterial activity against P. aeruginosa (in words),[4],significant antibacterial activities
same,inhibition at 200 µM,"[4]; 200 μM, 24 h",81%
"COc1cc(O)cc2c1C(=O)c1c(O)cc(C)cc1[C@H]2[C@@H](C)CC(C)=O [Compound 5, (10R,12S)-Chevalierone]",antibacterial activity against MRSA (in words),[1],significant antibacterial activities
same,inhibition at 200 µM,[1]; [7],88.5%
same,MIC50,"[1]; Staphylococcus aureus, MRSA, read-out: MIC50 against MRSA",44 µM
same,antibacterial activity against P. aeruginosa (in words),[4],significant antibacterial activities
same,inhibition at 200 µM,"[4]; 200 μM, 24 h",91.5%
"CCCCCCCc1c(O)cc2c(c1C=O)OC(C)(C)C=C2 [Compound 6, asperglaucin B]",IC50,[6],> 100 µM
same,MIC,"[1]; Staphylococcus aureus, MRSA, read-out: MIC against MRSA",44 µM
"CCC/C=C/c1cc2c(C=O)c(O)c(CC=C(C)C)cc2o1 [Compound 7, 2-(2′,3-epoxy-1′,3′-heptadienyl)-6-hydroxy-5-(3-methyl-2-butenyl)benzaldehyde]",IC50,[6],> 100 µM
"CCCCC/C=C/c1c(O)cc(CC=C(C)C)c(O)c1C=O [Compound 8, tetrahydroauroglaucin]",IC50,[6],36.1 µM
"CCC/C=C/C=C/c1c(O)cc(CC=C(C)C)c(O)c1C=O [Compound 9, dihydroauroglaucin]",IC50,[6],> 100 µM
"CCCCCCCc1c(O)cc(CC=C(C)C)c(O)c1C=O [Compound 10, flavoglaucin]",IC50,[6],40.9 µM
same,IC50 at 48 h,in vitro,39.7 µM
"C/C=C/C=C/CCc1c(O)cc(CC=C(C)C)c(O)c1C=O [Compound 11, isodihydroauroglaucin]",IC50,[6],34.9 µM
"CC(C)=CCc1cc2oc(=O)ccc2c(C=O)c1O [Compound 12, cristaldehyde A]",IC50,[6],> 100 µM
"CCC[C@@H](O)[C@@H]1C=Cc2c(cc(CC=C(C)C)c(O)c2C=O)O1 [Compound 13, (3′S,4′R)-6-(3′,5-epoxy-4′-hydroxy-1′-heptenyl)-2-hyd roxy-3-(3″-methyl-2″-butenyl)benzaldehyde]",IC50,[6],> 100 µM
"COc1cc(O)c2c(c1)C(=O)c1cc(C)cc(O)c1C2=O [Compound 15, physcion]",inhibition at 200 µM,"[4]; 200 μM, 24 h",38%
"CC1(C)S[C@@H]2[C@H](NC(=O)Cc3ccccc3)C(=O)N2[C@H]1C(=O)O [Penicillin G sodium, Penicillin G sodium salt, reference compound]",inhibition at 200 µM,[1]; [7],60.5%
same,inhibition at 200 µM,"[4]; 200 μM, 24 h",99.9%
same,inhibition at 200 µM,[5],75.7%

# Reference: paper PMC9722750, “Antibacterial and β-amyloid precursor protein-cleaving enzyme 1 inhibitory polyketides from the fungus Aspergillus chevalieri” (Frontiers in Microbiology, 2022)
